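Compound exposure: 48 hours, 5 concentrations, 96-well plates. The concentration for 50% growth inhibition is given as GI50.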 Calls of active or inactive are those of the source. Cut-off read from the data, not from the text of the source: active = GI50 up to about 1.1 µM and inactive = higher.
Tests used:
Assay in all cases: NCI tumour cell line growth inhibition, 48 h
786-0 = system: 786-0
ACHN = system: ACHN
DU-145 = system: DU-145
HOP-92 = system: HOP-92
HT-29 = system: HT-29
KM12 = system: KM12
MCF7 = system: MCF7
MDA-MB-231 = system: MDA-MB-231
MDA-N = system: MDA-N
MOLT-4 = system: MOLT-4
NCI-H23 = system: NCI-H23
NCI-H460 = system: NCI-H460
OVCAR-5 = system: OVCAR-5
SF-268 = system: SF-268
SF-539 = system: SF-539
SN12C = system: SN12C
SW-620 = system: SW-620
UO-31 = system: UO-31
SK-MEL-2 = system: SK-MEL-2

Structure (SMILES) | GI50 (786-0) | GI50 (ACHN) | GI50 (DU-145) | GI50 (HOP-92) | GI50 (HT-29) | GI50 (KM12) | GI50 (MCF7) | GI50 (MDA-MB-231) | GI50 (MDA-N) | GI50 (MOLT-4) | GI50 (NCI-H23) | GI50 (NCI-H460) | GI50 (OVCAR-5) | GI50 (SF-268) | GI50 (SF-539) | GI50 (SN12C) | GI50 (SW-620) | GI50 (UO-31) | GI50 (SK-MEL-2)
O=C(O)CC1OCC=C2CN3CCC45c6ccccc6NC4C1C2CC35 (stereo not drawn) | > 100 µM (inactive) | > 100 µM (inactive) | > 100 µM (inactive) | > 100 µM (inactive) | > 100 µM (inactive) | > 100 µM (inactive) | > 100 µM (inactive) | > 100 µM (inactive) | > 100 µM (inactive) | > 100 µM (inactive) | > 100 µM (inactive) | > 100 µM (inactive) | > 100 µM (inactive) | > 100 µM (inactive) | > 100 µM (inactive) | > 100 µM (inactive) | > 100 µM (inactive) | > 100 µM (inactive) | –
CCCCNC(=S)Nc1nc(C(=O)NNC(=O)c2ccccc2)cs1 | 16.7 µM (inactive) | 15.9 µM (inactive) | 19.6 µM (inactive) | 40.2 µM (inactive) | 24 µM (inactive) | 15.2 µM (inactive) | – | 12.5 µM (inactive) | 17.5 µM (inactive) | 20.5 µM (inactive) | > 10 µM (inactive) | – | 17.6 µM (inactive) | 25.9 µM (inactive) | – | 17.3 µM (inactive) | 14 µM (inactive) | 14.1 µM (inactive) | 19.6 µM (inactive)
Clc1cc(Cc2cc(Cl)c(Cl)c3c2OCOC3)c2c(c1Cl)COCO2 | 25.1 µM (inactive) | 32.4 µM (inactive) | – | 16.9 µM (inactive) | > 100 µM (inactive) | > 100 µM (inactive) | – | – | – | 56.2 µM (inactive) | > 100 µM (inactive) | 43.8 µM (inactive) | > 100 µM (inactive) | > 100 µM (inactive) | 17.8 µM (inactive) | 58.6 µM (inactive) | > 100 µM (inactive) | 34.6 µM (inactive) | 55.5 µM (inactive)
NC(=S)NNC(=O)/C(=C/c1ccc(/C=C(\NC(=O)c2ccccc2)C(=O)NNC(N)=S)cc1)NC(=O)c1ccccc1 | > 100 µM (inactive) | > 100 µM (inactive) | – | > 100 µM (inactive) | > 100 µM (inactive) | > 100 µM (inactive) | – | – | – | 13.8 µM (inactive) | > 100 µM (inactive) | > 100 µM (inactive) | > 100 µM (inactive) | > 100 µM (inactive) | > 100 µM (inactive) | > 79.6 µM (inactive) | > 81.8 µM (inactive) | > 100 µM (inactive) | > 100 µM (inactive)
O=C(c1cccs1)N(C(=S)N1CCN(c2ccccn2)CC1)C1CCCCC1 | > 100 µM (inactive) | 69.2 µM (inactive) | – | 66.2 µM (inactive) | 52 µM (inactive) | 60.5 µM (inactive) | – | – | – | 33 µM (inactive) | > 100 µM (inactive) | 54.6 µM (inactive) | > 100 µM (inactive) | > 100 µM (inactive) | > 100 µM (inactive) | > 100 µM (inactive) | > 100 µM (inactive) | 44.4 µM (inactive) | 58.6 µM (inactive)
NC(=S)N/N=C1\C(=O)C=C(Nc2ccc(Cl)cc2Cl)c2ccccc21 | 7.85 µM (inactive) | 10.3 µM (inactive) | 96.6 µM (inactive) | 15.8 µM (inactive) | > 100 µM (inactive) | > 100 µM (inactive) | 48.9 µM (inactive) | 10.3 µM (inactive) | > 100 µM (inactive) | 51.2 µM (inactive) | 23.2 µM (inactive) | 57.4 µM (inactive) | > 100 µM (inactive) | 9.38 µM (inactive) | 7.38 µM (inactive) | > 100 µM (inactive) | > 100 µM (inactive) | 92 µM (inactive) | 39.3 µM (inactive)
COC(=O)CCC1=C(CC(=O)OC)C(C)(OC)N/C1=N/C(=O)OCc1ccccc1 (stereo not drawn) | > 100 µM (inactive) | > 100 µM (inactive) | > 100 µM (inactive) | – | > 100 µM (inactive) | > 100 µM (inactive) | > 100 µM (inactive) | > 100 µM (inactive) | – | > 100 µM (inactive) | > 100 µM (inactive) | > 100 µM (inactive) | > 100 µM (inactive) | > 100 µM (inactive) | > 100 µM (inactive) | > 100 µM (inactive) | > 100 µM (inactive) | > 100 µM (inactive) | > 100 µM (inactive)
COC(=O)C1(C(=O)OC)N=C(C)OC1C(C)C (stereo not drawn) | > 100 µM (inactive) | > 100 µM (inactive) | > 100 µM (inactive) | > 100 µM (inactive) | – | > 100 µM (inactive) | > 100 µM (inactive) | – | > 100 µM (inactive) | > 100 µM (inactive) | > 100 µM (inactive) | > 100 µM (inactive) | > 100 µM (inactive) | – | – | > 100 µM (inactive) | > 100 µM (inactive) | > 100 µM (inactive) | > 100 µM (inactive)
CC(C)CCC[C@@H](C)C1CCC2[C@@H]3CC=C4C[C@@H](C(=O)NCCN(C)C)CC[C@]4(C)C3CC[C@@]21C (stereo partly drawn) | 17.3 µM (inactive) | 35.8 µM (inactive) | – | 5.89 µM (inactive) | 34.2 µM (inactive) | 14.9 µM (inactive) | – | – | – | 31.1 µM (inactive) | 18.3 µM (inactive) | 32.9 µM (inactive) | > 100 µM (inactive) | 36 µM (inactive) | 17.1 µM (inactive) | 19.4 µM (inactive) | 30 µM (inactive) | 23.1 µM (inactive) | 11.5 µM (inactive)
CC1=Nc2c(ccc3c2C(=O)c2ccccc2C3=O)NC(c2cccc3c2CCC3)C1 (stereo not drawn) | > 100 µM (inactive) | 25.3 µM (inactive) | – | > 65 µM (inactive) | > 100 µM (inactive) | > 31.9 µM (inactive) | – | – | – | 5.11 µM (inactive) | > 100 µM (inactive) | 47.8 µM (inactive) | > 100 µM (inactive) | > 100 µM (inactive) | > 100 µM (inactive) | > 100 µM (inactive) | > 100 µM (inactive) | 4.72 µM (inactive) | > 80.9 µM (inactive)
C=CCOc1cc2c(cc1C(C)c1ccc(OC)cc1)OCO2 (stereo not drawn) | 0.655 µM (active) | 0.612 µM (active) | 10.6 µM (inactive) | – | 0.286 µM (active) | 0.372 µM (active) | 0.453 µM (active) | 11.5 µM (inactive) | 0.337 µM (active) | 0.483 µM (active) | 0.807 µM (active) | 0.409 µM (active) | 12.2 µM (inactive) | 4.88 µM (inactive) | 0.333 µM (active) | 0.849 µM (active) | 0.375 µM (active) | 0.583 µM (active) | 16.6 µM (inactive)
C[C@]12C=CC(=O)C=C1CC[C@H]1[C@@H]3C[C@@H](O)[C@](O)(C(=O)CO)[C@@]3(C)C[C@H](O)[C@@]12F [TRIAMCINOLONE] | > 100 µM (inactive) | > 100 µM (inactive) | – | > 100 µM (inactive) | > 100 µM (inactive) | > 100 µM (inactive) | – | – | – | > 100 µM (inactive) | > 100 µM (inactive) | > 100 µM (inactive) | > 100 µM (inactive) | > 100 µM (inactive) | > 100 µM (inactive) | > 100 µM (inactive) | > 100 µM (inactive) | > 100 µM (inactive) | > 100 µM (inactive)

— ChEMBL document CHEMBL1201862, “PubChem BioAssay data set” (2004)
